Legend:
[1] = target: T1, Alpha-2B adrenergic receptor (Homo sapiens, UniProt P18089)
T1 sequence (P18089 whole entry): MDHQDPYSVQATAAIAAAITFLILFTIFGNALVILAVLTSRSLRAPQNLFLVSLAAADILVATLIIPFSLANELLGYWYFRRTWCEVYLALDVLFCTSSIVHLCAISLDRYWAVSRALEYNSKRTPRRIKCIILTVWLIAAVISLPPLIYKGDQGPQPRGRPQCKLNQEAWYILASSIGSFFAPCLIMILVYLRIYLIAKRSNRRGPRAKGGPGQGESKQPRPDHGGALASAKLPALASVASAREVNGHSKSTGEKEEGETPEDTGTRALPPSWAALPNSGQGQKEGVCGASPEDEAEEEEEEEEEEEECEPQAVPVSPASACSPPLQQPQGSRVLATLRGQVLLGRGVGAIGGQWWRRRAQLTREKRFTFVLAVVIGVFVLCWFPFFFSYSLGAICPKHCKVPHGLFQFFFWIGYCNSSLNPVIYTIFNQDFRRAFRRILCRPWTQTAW

[2] = target: 5-hydroxytryptamine receptor 2B (Homo sapiens, UniProt P41595); assay type: functional, cell-based
5-hydroxytryptamine receptor 2B, sequence (P41595 whole entry): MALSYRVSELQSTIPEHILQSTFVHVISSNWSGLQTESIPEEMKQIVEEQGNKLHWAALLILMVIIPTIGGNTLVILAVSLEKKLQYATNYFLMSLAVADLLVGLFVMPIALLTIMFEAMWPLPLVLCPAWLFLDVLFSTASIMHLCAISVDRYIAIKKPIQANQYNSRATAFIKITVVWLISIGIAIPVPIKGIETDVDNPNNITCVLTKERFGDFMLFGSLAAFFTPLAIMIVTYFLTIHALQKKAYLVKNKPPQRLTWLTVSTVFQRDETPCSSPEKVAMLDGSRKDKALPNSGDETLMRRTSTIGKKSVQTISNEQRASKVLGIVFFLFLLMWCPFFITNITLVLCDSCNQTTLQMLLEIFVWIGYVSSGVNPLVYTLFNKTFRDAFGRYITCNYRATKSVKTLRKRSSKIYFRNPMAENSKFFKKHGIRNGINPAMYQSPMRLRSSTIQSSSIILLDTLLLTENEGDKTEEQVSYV

[3] = target: T2, Gastrin/cholecystokinin type B receptor (Homo sapiens, UniProt P32239)
T2 sequence (P32239 whole entry): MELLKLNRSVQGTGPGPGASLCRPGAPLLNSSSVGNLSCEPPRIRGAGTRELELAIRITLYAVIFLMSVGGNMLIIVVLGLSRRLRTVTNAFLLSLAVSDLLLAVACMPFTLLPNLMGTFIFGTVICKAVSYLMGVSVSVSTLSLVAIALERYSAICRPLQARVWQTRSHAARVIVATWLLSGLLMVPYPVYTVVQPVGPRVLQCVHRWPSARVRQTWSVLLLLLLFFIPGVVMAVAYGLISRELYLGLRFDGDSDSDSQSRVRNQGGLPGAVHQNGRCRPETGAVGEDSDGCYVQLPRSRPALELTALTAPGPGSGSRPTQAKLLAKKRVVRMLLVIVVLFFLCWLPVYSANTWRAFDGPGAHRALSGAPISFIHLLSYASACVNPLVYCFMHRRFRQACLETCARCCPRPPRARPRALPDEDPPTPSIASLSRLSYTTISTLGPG

[4] = target: T3, Beta-2 adrenergic receptor (Homo sapiens, UniProt P07550); assay type: functional, cell-based
T3 sequence (P07550 whole entry): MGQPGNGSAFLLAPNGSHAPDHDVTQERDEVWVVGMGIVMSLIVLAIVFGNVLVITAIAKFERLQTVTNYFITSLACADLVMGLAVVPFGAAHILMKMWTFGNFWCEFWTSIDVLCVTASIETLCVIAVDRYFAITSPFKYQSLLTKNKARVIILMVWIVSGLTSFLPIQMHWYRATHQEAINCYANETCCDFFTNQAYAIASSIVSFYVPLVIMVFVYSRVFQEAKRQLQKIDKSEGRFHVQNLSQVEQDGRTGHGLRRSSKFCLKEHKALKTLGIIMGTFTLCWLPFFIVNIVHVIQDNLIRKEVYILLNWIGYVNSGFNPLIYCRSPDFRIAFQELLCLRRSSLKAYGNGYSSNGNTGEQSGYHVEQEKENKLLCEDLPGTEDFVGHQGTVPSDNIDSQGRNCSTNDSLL

[5] = target: T4, D(1A) dopamine receptor (Homo sapiens, UniProt P21728); assay type: functional, cell-based
T4 sequence (P21728 whole entry): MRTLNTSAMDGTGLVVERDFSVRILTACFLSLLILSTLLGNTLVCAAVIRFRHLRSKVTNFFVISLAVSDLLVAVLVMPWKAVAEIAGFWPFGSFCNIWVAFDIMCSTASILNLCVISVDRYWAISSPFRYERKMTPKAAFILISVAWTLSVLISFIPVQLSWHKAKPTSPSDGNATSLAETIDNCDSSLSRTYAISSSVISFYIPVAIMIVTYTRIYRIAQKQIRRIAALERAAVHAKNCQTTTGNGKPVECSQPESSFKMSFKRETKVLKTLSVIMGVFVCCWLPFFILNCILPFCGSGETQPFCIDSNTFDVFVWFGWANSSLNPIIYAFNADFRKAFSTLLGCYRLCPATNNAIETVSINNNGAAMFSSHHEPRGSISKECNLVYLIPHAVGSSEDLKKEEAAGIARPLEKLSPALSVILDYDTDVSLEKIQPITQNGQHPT

[6] = target: Kappa-type opioid receptor (Homo sapiens, UniProt P41145)
Kappa-type opioid receptor, sequence (P41145 whole entry): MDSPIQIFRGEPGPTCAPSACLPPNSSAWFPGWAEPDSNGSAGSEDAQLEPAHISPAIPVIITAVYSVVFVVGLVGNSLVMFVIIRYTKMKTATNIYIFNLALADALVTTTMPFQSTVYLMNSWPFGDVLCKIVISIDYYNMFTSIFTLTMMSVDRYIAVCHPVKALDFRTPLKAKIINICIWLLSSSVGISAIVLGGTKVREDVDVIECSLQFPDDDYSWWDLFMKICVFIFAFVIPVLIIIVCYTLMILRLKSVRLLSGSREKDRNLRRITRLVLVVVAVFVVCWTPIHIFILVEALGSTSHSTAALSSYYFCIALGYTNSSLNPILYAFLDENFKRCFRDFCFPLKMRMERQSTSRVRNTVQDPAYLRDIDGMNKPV

[7] = target: Cannabinoid receptor 1 (Homo sapiens, UniProt P21554); assay type: functional, cell-based
[8] = target: Voltage-dependent L-type calcium channel subunit alpha-1C (Rattus norvegicus, UniProt P22002); assay type: functional
Voltage-dependent L-type calcium channel subunit alpha-1C, sequence (P22002 whole entry): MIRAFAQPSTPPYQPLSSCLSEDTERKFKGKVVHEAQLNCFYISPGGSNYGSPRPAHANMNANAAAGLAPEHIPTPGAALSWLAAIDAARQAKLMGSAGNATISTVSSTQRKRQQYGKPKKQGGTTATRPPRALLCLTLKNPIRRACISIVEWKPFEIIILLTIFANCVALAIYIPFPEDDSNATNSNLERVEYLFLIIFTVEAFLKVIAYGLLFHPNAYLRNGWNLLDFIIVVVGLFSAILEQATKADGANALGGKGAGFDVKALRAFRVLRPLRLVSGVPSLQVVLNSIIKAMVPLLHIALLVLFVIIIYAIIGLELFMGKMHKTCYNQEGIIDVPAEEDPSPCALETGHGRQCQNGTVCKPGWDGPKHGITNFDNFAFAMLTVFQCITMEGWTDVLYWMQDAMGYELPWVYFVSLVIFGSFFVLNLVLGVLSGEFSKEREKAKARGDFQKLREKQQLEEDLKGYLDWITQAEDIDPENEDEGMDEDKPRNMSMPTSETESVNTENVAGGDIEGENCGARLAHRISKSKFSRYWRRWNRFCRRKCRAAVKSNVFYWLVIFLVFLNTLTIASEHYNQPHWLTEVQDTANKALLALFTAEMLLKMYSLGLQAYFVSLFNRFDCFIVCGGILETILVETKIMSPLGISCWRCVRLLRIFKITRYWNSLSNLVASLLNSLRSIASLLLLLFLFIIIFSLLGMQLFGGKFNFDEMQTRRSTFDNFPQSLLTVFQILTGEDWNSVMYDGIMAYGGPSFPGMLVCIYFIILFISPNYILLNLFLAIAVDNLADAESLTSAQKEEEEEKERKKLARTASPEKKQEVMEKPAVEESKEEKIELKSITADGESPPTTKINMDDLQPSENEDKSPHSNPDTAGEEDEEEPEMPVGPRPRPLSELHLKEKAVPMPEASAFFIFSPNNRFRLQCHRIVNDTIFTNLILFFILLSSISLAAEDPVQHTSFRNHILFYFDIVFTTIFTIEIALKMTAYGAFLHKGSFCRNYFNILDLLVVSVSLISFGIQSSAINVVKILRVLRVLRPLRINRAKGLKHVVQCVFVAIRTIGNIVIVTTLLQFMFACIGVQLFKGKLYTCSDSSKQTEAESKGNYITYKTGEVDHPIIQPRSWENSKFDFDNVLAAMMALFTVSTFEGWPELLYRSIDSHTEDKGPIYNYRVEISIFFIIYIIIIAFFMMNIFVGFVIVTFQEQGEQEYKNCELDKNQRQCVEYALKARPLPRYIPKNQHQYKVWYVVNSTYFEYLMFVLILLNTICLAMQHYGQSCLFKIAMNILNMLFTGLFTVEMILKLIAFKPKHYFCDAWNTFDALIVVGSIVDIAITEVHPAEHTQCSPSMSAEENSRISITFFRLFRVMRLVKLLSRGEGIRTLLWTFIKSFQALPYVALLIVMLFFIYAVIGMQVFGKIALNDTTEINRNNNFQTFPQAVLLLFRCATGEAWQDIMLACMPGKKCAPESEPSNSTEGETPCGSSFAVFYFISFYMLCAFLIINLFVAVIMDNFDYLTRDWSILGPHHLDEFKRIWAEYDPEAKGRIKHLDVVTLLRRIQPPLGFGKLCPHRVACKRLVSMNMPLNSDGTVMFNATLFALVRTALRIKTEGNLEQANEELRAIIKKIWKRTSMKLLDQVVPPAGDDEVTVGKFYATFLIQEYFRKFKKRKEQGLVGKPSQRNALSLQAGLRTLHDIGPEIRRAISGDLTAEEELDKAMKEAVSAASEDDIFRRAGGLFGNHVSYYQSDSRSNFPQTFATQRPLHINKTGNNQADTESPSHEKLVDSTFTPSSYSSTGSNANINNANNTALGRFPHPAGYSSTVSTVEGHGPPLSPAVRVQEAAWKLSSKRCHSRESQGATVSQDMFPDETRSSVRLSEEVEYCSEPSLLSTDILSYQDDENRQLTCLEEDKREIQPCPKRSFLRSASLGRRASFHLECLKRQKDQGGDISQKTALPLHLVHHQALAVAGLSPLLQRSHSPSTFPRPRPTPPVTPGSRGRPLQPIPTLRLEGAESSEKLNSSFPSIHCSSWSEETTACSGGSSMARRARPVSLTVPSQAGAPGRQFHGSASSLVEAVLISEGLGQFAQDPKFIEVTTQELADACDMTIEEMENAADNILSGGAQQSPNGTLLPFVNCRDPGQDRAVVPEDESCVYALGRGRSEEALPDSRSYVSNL

[9] = target: T3, Beta-2 adrenergic receptor
[10] = target: T5, Estrogen receptor (Homo sapiens, UniProt P03372)
T5 sequence (P03372 whole entry): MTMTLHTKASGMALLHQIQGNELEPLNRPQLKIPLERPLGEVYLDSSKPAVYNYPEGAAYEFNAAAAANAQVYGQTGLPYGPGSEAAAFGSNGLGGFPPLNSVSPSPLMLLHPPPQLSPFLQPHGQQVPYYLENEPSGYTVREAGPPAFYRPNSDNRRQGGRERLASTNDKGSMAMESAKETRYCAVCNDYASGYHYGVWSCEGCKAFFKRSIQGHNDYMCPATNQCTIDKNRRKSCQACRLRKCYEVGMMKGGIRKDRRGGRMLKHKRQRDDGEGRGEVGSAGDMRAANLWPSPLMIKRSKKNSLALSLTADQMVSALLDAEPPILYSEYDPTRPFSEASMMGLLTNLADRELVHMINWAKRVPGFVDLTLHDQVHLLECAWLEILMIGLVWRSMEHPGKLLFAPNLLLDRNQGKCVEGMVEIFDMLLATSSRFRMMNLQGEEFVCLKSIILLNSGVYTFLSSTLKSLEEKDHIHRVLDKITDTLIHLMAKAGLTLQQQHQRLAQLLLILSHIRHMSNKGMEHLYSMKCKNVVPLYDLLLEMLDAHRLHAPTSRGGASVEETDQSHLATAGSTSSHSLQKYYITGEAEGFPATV

[11] = target: T6, 5-hydroxytryptamine receptor 1A (Homo sapiens, UniProt P08908)
T6 sequence (P08908 whole entry): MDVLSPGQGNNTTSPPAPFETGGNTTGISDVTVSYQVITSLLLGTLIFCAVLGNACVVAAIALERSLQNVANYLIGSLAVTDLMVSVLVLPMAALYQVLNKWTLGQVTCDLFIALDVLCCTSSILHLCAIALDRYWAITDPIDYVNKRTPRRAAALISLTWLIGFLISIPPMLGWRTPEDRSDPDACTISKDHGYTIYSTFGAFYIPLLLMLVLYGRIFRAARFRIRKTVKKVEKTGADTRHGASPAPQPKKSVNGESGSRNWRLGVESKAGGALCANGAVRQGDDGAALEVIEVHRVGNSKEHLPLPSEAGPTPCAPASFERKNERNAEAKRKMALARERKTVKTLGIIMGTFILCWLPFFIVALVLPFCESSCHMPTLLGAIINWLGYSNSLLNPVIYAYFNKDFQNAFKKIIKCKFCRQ

[12] = target: Mu-type opioid receptor (Homo sapiens, UniProt P35372)
Mu-type opioid receptor, sequence (P35372 whole entry): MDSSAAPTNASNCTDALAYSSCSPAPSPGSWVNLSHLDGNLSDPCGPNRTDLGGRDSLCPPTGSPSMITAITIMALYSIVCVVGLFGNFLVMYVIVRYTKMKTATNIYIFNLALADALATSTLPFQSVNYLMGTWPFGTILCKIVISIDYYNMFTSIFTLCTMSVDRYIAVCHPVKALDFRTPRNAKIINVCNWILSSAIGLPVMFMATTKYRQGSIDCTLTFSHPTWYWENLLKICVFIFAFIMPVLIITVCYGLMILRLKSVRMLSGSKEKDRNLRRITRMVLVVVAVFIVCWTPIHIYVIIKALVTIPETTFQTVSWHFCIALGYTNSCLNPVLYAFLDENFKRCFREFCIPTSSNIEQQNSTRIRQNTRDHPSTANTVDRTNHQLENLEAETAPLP

[13] = target: T4, D(1A) dopamine receptor
[14] = target: Prostaglandin G/H synthase 1 (Homo sapiens, UniProt P23219); assay type: functional
Prostaglandin G/H synthase 1, sequence (P23219 whole entry): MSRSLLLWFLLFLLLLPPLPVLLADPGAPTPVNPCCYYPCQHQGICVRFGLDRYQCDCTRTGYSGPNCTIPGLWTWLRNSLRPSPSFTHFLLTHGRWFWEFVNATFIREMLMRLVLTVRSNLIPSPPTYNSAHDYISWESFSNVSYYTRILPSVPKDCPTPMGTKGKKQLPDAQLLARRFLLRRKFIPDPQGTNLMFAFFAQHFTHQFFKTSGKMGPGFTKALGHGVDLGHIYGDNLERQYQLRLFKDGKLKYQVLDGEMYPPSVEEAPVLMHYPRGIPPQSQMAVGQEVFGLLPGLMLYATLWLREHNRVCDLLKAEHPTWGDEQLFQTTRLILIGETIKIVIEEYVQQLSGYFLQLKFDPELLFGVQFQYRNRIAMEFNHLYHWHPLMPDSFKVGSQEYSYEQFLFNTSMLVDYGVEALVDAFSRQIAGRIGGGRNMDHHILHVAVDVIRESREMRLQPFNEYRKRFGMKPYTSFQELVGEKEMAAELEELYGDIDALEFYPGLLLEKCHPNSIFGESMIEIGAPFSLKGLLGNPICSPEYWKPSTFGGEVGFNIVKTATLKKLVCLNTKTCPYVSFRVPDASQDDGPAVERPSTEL

[15] = target: T7, Thromboxane A2 receptor (Homo sapiens, UniProt P21731); assay type: functional, cell-based
T7 sequence (P21731 whole entry): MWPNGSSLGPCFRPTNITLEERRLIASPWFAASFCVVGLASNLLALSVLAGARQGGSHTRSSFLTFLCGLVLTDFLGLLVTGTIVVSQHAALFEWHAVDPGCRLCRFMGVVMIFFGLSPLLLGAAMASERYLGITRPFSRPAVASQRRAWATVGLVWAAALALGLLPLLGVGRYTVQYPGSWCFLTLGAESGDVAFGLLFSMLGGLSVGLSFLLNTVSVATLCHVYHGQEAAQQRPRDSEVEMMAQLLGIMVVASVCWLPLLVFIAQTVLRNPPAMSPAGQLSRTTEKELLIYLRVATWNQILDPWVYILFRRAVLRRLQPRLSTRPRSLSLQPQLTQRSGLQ
Further: assay procedure not described here.

SMILES | AC50 [1] | AC50 [2] | AC50 [3] | AC50 [4] | AC50 [5] | AC50 [6] | AC50 [7] | AC50 [8] | AC50 [9] | AC50 [10] | AC50 [11] | AC50 [12] | AC50 [13] | AC50 [14] | AC50 [15]
C[C@]12CC[C@@H]3c4ccc(O)cc4C[C@@H](CCCCCCCCC[S+]([O-])CCCC(F)(F)C(F)(F)F)[C@H]3[C@@H]1CC[C@@H]2O (stereo partly drawn) [FULVESTRANT] | > 30 µM | > 30 µM | > 30 µM | > 30 µM | > 30 µM | > 30 µM | > 30 µM | – | – | – | – | – | – | – | –
CC(CCc1ccc(O)cc1)NCCc1ccc(O)c(O)c1 (stereo not drawn) [DOBUTAMINE] | – | > 30 µM | > 30 µM | > 30 µM | 13 µM | 6.86 µM | > 30 µM | > 30 µM | 5.07 µM | > 30 µM | – | – | – | – | –
CCC(C)C(CC)C(N)=O (stereo not drawn) [VALNOCTAMIDE] | > 30 µM | > 30 µM | > 30 µM | > 30 µM | > 30 µM | > 30 µM | > 30 µM | – | – | > 30 µM | – | – | – | – | –
CCOC(=O)C1=C[C@]2(CC)CCCN3CCc4c(n1c1ccccc41)[C@@H]32 [VINPOCETINE] | 2.4 µM | 13 µM | > 30 µM | > 30 µM | > 30 µM | > 30 µM | > 30 µM | – | – | – | – | – | – | – | –
Oc1ccc2c(c1)CC[C@H](c1ccccc1)[C@@H]2c1ccc(OCCN2CCCC2)cc1 [LASOFOXIFENE] | 8.2 µM | – | > 3 µM | > 30 µM | > 30 µM | 0.0849 µM | > 30 µM | – | – | – | – | – | – | – | –
CC[C@@H]([C@H](C)O)n1ncn(-c2ccc(N3CCN(c4ccc(OC[C@@H]5CO[C@@](Cn6cncn6)(c6ccc(F)cc6F)C5)cc4)CC3)cc2)c1=O [POSACONAZOLE] | > 30 µM | – | – | – | – | – | – | – | – | – | > 30 µM | > 30 µM | > 30 µM | > 30 µM | > 1 µM
CC(N)C(O)c1ccccc1 (stereo not drawn) [PHENYLPROPANOLAMINE] | > 10 µM | > 10 µM | > 30 µM | > 30 µM | > 10 µM | > 10 µM | > 30 µM | > 10 µM | > 10 µM | – | – | – | – | – | –
CCOC(=O)C1=C(C)NC(C)=C(C(=O)OC)C1c1cccc([N+](=O)[O-])c1 (stereo not drawn) [NITRENDIPINE] | – | > 10 µM | > 30 µM | > 30 µM | > 30 µM | > 10 µM | > 30 µM | 0.0004 µM | > 10 µM | > 30 µM | – | – | – | – | –
CC(=O)N[C@@H](CS)C(=O)O [ACETYLCYSTEINE] | > 10 µM | > 30 µM | > 30 µM | > 30 µM | > 30 µM | > 30 µM | > 30 µM | – | – | > 30 µM | – | – | – | – | –
CCN(CCCc1ccccc1)CCCc1ccccc1 [ALVERINE] | – | – | – | – | – | – | – | – | – | – | 0.029 µM | 2 µM | 3.72 µM | > 30 µM | > 30 µM
CC(C)N(CCNC(=O)CN1CCCC1=O)C(C)C | – | – | – | – | – | – | – | – | – | – | > 30 µM | > 30 µM | > 30 µM | > 30 µM | > 30 µM
Cc1cc(NC(=O)C2=C(O)c3ccccc3S(=O)(=O)N2C)no1 [ISOXICAM] | – | – | – | – | – | – | – | – | – | – | > 30 µM | > 30 µM | > 30 µM | > 30 µM | > 30 µM
C/N=C(\NC)NCc1ccccc1 [BETHANIDINE] | > 30 µM | > 30 µM | > 30 µM | > 30 µM | > 30 µM | > 30 µM | > 30 µM | – | – | > 30 µM | – | – | – | – | –
CC(C(=O)O)c1ccc(CC2CCCC2=O)cc1 (stereo not drawn) [LOXOPROFEN] | – | > 30 µM | > 30 µM | > 30 µM | > 30 µM | 0.66 µM | > 30 µM | > 30 µM | > 30 µM | > 30 µM | – | – | – | – | –
CCN(CC)C(=S)S [DITIOCARB] | – | – | – | – | – | – | – | – | – | – | > 30 µM | > 30 µM | > 30 µM | 10.3 µM | > 1 µM
CCC(=O)O[C@H]1CC[C@H]2[C@@H]3CCC4=CC(=O)CC[C@]4(C)[C@H]3CC[C@]12C [TESTOSTERONE PROPIONATE] | > 10 µM | > 10 µM | – | > 30 µM | > 10 µM | 7.71 µM | > 30 µM | > 10 µM | > 10 µM | > 30 µM | – | – | – | – | –
Cc1c(N(C)CS(=O)(=O)O)c(=O)n(-c2ccccc2)n1C [METAMIZOLE] | – | – | – | – | – | – | – | – | – | – | > 30 µM | > 30 µM | > 30 µM | 3.66 µM | > 30 µM
NC(=O)OCC(O)COc1ccc(Cl)cc1 (stereo not drawn) [CHLORPHENESIN CARBAMATE] | – | – | – | – | – | – | – | – | – | – | > 30 µM | > 30 µM | > 30 µM | > 30 µM | > 30 µM
CNC1=Nc2ccc(Cl)cc2C(c2ccccc2)=[N+]([O-])C1 [CHLORDIAZEPOXIDE] | – | > 10 µM | > 30 µM | > 30 µM | > 30 µM | – | – | > 10 µM | > 10 µM | > 30 µM | – | – | – | – | –
CN(C)CCOC(c1ccccc1)c1ccc(Br)cc1 (stereo not drawn) [BROMODIPHENHYDRAMINE] | – | – | – | – | – | – | – | – | – | – | 22.2 µM | 17.9 µM | 2.95 µM | > 30 µM | 14.8 µM
CCC(C)C1(CC)C(=O)NC(=O)NC1=O (stereo not drawn) [BUTABARBITAL] | – | > 30 µM | > 30 µM | > 30 µM | > 30 µM | – | > 30 µM | – | – | > 30 µM | – | – | – | – | –
CCC(=O)O[C@]1(C(=O)CCl)[C@@H](C)C[C@H]2[C@@H]3C[C@H](F)C4=CC(=O)C=C[C@]4(C)[C@@]3(F)[C@@H](O)C[C@@]21C [HALOBETASOL PROPIONATE] | – | – | – | – | – | – | – | – | – | – | > 30 µM | > 30 µM | > 30 µM | > 30 µM | > 30 µM
